Source: patent US9309263B2, “Fused multi-cyclic sulfone compounds as inhibitors of beta-secretase and methods of use thereof” (AMGEN INC., priority 2013, dated 2016)
Where two headings read alike, the source gives them in different places.

How the values were obtained:
[1] = target: Beta Secretase enzyme (BACE) (Homo sapiens, UniProt P56817); experiment: In vitro enzymatic BACE FRET assay; type: biochemical; details: average IC50, in vitro enzymatic BACE FRET assay; read-out: BACE1 FRET assay IC50
Chain of Beta Secretase enzyme (BACE) (P56817 46-501): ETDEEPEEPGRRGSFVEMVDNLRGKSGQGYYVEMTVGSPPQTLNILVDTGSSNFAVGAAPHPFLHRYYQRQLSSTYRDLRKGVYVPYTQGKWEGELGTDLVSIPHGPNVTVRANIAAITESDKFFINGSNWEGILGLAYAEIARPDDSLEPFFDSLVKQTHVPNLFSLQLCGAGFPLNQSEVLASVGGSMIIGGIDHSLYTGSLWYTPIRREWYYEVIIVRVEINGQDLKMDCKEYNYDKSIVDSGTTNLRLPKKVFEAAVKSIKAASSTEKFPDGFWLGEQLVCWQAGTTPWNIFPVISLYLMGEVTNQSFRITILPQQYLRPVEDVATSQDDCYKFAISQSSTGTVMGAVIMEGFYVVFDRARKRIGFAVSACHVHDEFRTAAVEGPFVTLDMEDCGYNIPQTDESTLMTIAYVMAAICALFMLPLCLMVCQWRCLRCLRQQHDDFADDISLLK
Summary of the method: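 Enzyme (0.2 nM) pre-incubated 1 h with serially diluted inhibitors in 0.05 M acetate pH 4.2, 10% DMSO, 100 uM genapol. Reaction started with 50 nM fluorophore/quencher peptide FRET substrate, run 1 h, stopped with Tris to neutral pH. Fluorescence read at excitation 488 nm, […].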

[2] = tested on: Aβ 40 in conditioned medium of cells stably expressing Amyloid Precursor Protein (APP); experiment: In vitro BACE cell-based assay (Aβ 40 sandwich ELISA); details: Homo sapiens, HEK293; average IC50, HEK cell assay, Aβ 40 readout
Summary of the method: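 APP-expressing cells, 24 h pre-culture in DMEM/10% FBS, treated 24 h with 10-point compound dilutions from 100 or 10 μM top, 0.1% DMSO final. Secreted Aβ40 quantified by sandwich ELISA (pAb40 capture, biotinylated 6E10 detection, europium TRF); IC50 from percent inhibition versus concentration.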

Cathepsin D (Cat D) = Cathepsin D (Cat D) (Homo sapiens, UniProt P07339); experiment: In vitro enzymatic Cathepsin D (Cat D) FRET assay; type: biochemical
Chain of Cathepsin D (Cat D) (P07339 65-412, species assumed): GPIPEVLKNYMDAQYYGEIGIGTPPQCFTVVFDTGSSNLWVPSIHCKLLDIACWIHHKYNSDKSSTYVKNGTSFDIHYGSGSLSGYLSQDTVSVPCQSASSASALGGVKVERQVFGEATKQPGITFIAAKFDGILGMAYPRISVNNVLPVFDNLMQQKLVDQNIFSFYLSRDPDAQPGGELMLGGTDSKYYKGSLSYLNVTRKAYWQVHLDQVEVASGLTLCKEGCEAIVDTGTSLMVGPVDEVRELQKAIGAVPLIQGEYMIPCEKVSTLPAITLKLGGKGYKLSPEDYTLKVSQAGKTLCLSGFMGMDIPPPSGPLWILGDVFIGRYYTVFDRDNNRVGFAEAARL
Summary of the method: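 Recombinant CHO-expressed enzyme (9 nM) pre-incubated 1 h with serially diluted inhibitor in 0.05 M citrate pH 3.5, 10% DMSO final, 5 mM CHAPS. Reaction started with 20 nM FRET peptide substrate, run 1 h, stopped with Tris to neutral pH; fluorescence read at ex 500/em 580 nm.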

Abeta 40 = experiment: In vivo inhibition of beta-secretase: Abeta 40 reduction in CSF and brain of the rat; details: 10 mpk (unless otherwise noted), after 4 hrs
Text: In Vivo Inhibition of Beta-Secretase
Several animal models, including mouse, rat, dog, and monkey, may be used to screen for inhibition of beta-secretase activity in vivo following administration of a test compound sample. Animals used in this invention can be wild type, transgenic, or gene knockout animals. For example, the Tg2576 mouse model, prepared and conducted as described in Hsiao et al., 1996, Science 274, 99-102, and other non-transgenic or gene knockout animals are useful to analyze in vivo inhibition of Amyloid beta peptide (Abeta) production in the presence of inhibitory test compounds. Generally, 2 to 18 month old Tg2576 mice, gene knockout mice or non-transgenic animals are administered test compounds formulated in vehicles, such as cyclodextran, phosphate buffers, hydroxypropyl methylcellulose or other suitable vehicles. One to twenty-four hours following the administration of compound, animals are sacrificed, and brains as well as cerebrospinal fluid (CSF) and plasma are removed for analysis of A-beta levels and drug or test compound concentrations (Dovey et al., 2001, Journal of Neurochemistry, 76, 173-181) Beginning at time 0, animals are administered by oral gavage, or other means of delivery such as intravenous injection, an inhibitory test compound of up to 100 mg/kg in a standard, conventional formulation, such as 2% hydroxypropyl methylcellulose, 1% Tween80. A separate group of animals receive 2% hydroxypropyl methylcellulose, 1% Tween80 alone, containing no test compound, and serve as a vehicle-control group. At the end of the test period, animals are sacrificed and brain tissues, plasma or cerebrospinal fluid are collected. Brains are either homogenized in 10 volumes (w/v) of 0.2% diethylamine (DEA) in 50 mM NaCl (Best et al., 2005, Journal of Pharmacology and Experimental Therapeutics, 313, 902-908), or in 10 volumes of 0.5% TritonX-100 in Tris-buffered saline (pH at about 7.6). Homogenates are centrifuged at 355,000 g, 4° C. for 30 minutes. CSF or brain supernatants are then analyzed for the presence of A-beta peptide by specific sandwich ELISA assays based on ECL (Electrochemiluminescence) technology. For example, rat Abeta40 is measured using biotinylated-4G8 (Signet) as a capture antibody and Fab40 (an in-house antibody specific to the C-terminal of Abeta40) as a detection antibody. For example, 4 hours after administration of 30 mg/kg oral dose of the test compound in 2% hydroxypropyl methylcellulose, 1% Tween80 (pH2.2) to 200 g male Sprague Dawley rats, amyloid beta peptide levels are measured for reduction by X % and Y % in cerebrospinal fluid and brain, respectively, when compared to the levels measured in the vehicle-treated or control […].
Actual vehicles used: Oral: 2% HPMC, 1% Tween80, pH 2.2
• IV: 5% EtOH, 45% Propylene Glycol in 5% Dextrose
The compounds of the invention may be shown to reduce the formation and/or deposition of amyloid beta peptide in the cerebrospinal fluid (CSF) as well as in the brain of a mouse or rat at either 3 mpk, 10 mpk or 30 mpk (mpk=mg compound per kg weight of the animal) dosing concentrations after 4 hrs.

[3] = Cathepsin D FRET assay, read-out: CatD IC50
[4] = Abeta 40 in CSF of the rat, read-out: % reduction of rat CSF levels at 10 pmk
[5] = Abeta 40 in brain of the rat, read-out: % reduction of rat brain levels at 10 mpk

SMILES | IC50 [1] [µM] | IC50 [2] [µM] | IC50 (Cathepsin D (Cat D); [3]) [µM] | IC50 (Cathepsin D (Cat D); text summary referring to data in Table 2) [µM] | inhibition in vivo at 10 mg/kg (Abeta 40; [4]) [%] | inhibition in vivo at 10 mg/kg (Abeta 40; [5]) [%]
CC1(C)C[C@@H]2[C@](C)(N=C(N)C(C)(C)S2(=O)=O)c2cc(Nc3ncnc4cc(C(F)(F)F)cnc34)ccc2O1 [Example 106, (4aR,11bR)-3,3,6,6,11b-pentamethyl-N^~10^~-(7-(trifluoromethyl)pyrido[3,2-d]pyrimidin-4-yl)-4a,5,6,11b-tetrahydro-3H-[1]benzoxepino[4,5-b][1,4]thiazine-2,10-diamine 4,4-dioxide] | 0.017 | 0.009 | 505 | – | 36 | 36
C[C@H]1C[C@@H]2[C@](C)(N=C(N)C(C)(C)S2(=O)=O)c2cc(Nc3nccc4nc(OCc5ncco5)cnc34)ccc2O1 [Example 138, (4aR,6S,11bR)-3,3,6,11b-tetramethyl-N^~10^~-(2-(1,3-oxazol-2-ylmethoxy)pyrido[3,4-b]pyrazin-5-yl)-4a,5,6,11b-tetrahydro-3H-[1]benzoxepino[4,5-b][1,4]thiazine-2,10-diamine 4,4-dioxide] | 0.004 | 0.001 | 173 | – | 46 | 38
C[C@H]1C[C@@H]2[C@](C)(N=C(N)C(C)(C)S2(=O)=O)c2cc(NC(=O)c3ccc(Cl)cn3)ccc2O1 [Example 85, N-((4aR,6S,11bR)-2-amino-3,3,6,11b-tetramethyl-4,4-dioxido-4a,5,6,11b-tetrahydro-3H-[1]benzoxepino[4,5-b][1,4]thiazin-10-yl)-5-chloro-2-pyridinecarboxamide] | 0.004 | 0.003 | 607 | – | 79 | 78
CC1(C)C[C@@H]2[C@](C)(N=C(N)C(C)(C)S2(=O)=O)c2cc(NC(=O)c3ncc(C(F)(F)F)cc3Cl)ccc2O1 [Example 127, N-((4aR,11bR)-2-amino-3,3,6,6,11b-pentamethyl-4,4-dioxido-4a,5,6,11b-tetrahydro-3H-[1]benzoxepino[4,5-b][1,4]thiazin-10-yl)-3-chloro-5-(trifluoromethyl)-2-pyridinecarboxamide] | 0.019 | 0.007 | 1020 | – | 37 | 15
Cc1cc(C(F)(F)F)cnc1C(=O)Nc1ccc2c(c1)[C@@]1(CF)N=C(N)C(C)(C)S(=O)(=O)[C@@H]1C[C@H](C)O2 [Example 104, N-((4aR,6S,11bS)-2-amino-11b-(fluoromethyl)-3,3,6-trimethyl-4,4-dioxido-4a,5,6,11b-tetrahydro-3H-[1]benzoxepino[4,5-b][1,4]thiazin-10-yl)-3-methyl-5-(trifluoromethyl)-2-pyridinecarboxamide] | 0.014 | 0.037 | > 400 | – | 36 | 11

These reach a lower IC50 [1]. Values come first.

IC50 [1] [µM] | IC50 [2] [µM] | IC50 (Cathepsin D (Cat D); [3]) [µM] | IC50 (Cathepsin D (Cat D); text summary referring to data in Table 2) [µM] | SMILES | inhibition in vivo at 10 mg/kg (Abeta 40; [4]) [%] | inhibition in vivo at 10 mg/kg (Abeta 40; [5]) [%]
0.003 | 0.002 | 1140 | > 1200 | C[C@H]1C[C@@H]2[C@](C)(N=C(N)C(C)(C)S2(=O)=O)c2cc(NC(=O)c3ccc(C#N)cn3)ccc2O1 [Example 86, N-((4aR,6S,11bR)-2-amino-3,3,6,11b-tetramethyl-4,4-dioxido-4a,5,6,11b-tetrahydro-3H-[1]benzoxepino[4,5-b][1,4]thiazin-10-yl)-5-cyano-2-pyridinecarboxamide] | 79 | 79
0.003 | 0.002 | 567 | – | C[C@H]1C[C@@H]2[C@](C)(N=C(N)C(C)(C)S2(=O)=O)c2cc(NC(=O)c3ncc(Cl)cc3Cl)ccc2O1 [Example 129, N-((4aR,6S,11bR)-2-amino-3,3,6,11b-tetramethyl-4,4-dioxido-4a,5,6,11b-tetrahydro-3H-[1]benzoxepino[4,5-b][1,4]thiazin-10-yl)-3,5-dichloro-2-pyridinecarboxamide] | 21 | 18
